Source: patent US10023592B2, “Bromodomain inhibitors” (Celgene Quanticel Research, Inc., priority 2013, dated 2018)
Where two headings read alike, the source gives them in different places.

Key:
BRD4(BD1) = BRD4(BD1) (Homo sapiens (Human), UniProt O60885); experiment: In vitro enzyme inhibition assay (BRD4 AlphaScreen); type: binding
Summary of the method: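 AlphaScreen proximity readout, using streptavidin donor and Ni-chelate acceptor beads at 5 μg/mL final, monitors biotin-H4 tetraacetylated peptide interaction with purified His-tagged BRD4.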

[1] = tested on: Raji, human Burkitts lymphoma cells; experiment: Cell-MTS proliferation assay, Raji; type: cell-based; conditions: Homo sapiens, 168 hr
Summary of the method: (§1)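 Seven-day colorimetric MTS assay; compound at 11 concentrations from 100 μM down to 2.0 nM final, added a day after plating. IC50 from OD490 normalised to DMSO controls.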

[2] = tested on: HL-60, human proleukemia cells; experiment: Cell-MTS proliferation assay, HL-60; type: cell-based; conditions: Homo sapiens, 168 hr
Summary of the method: as §1

[3] = tested on: NCI-H460, human non-small cell lung cancer cells; experiment: Cell-MTS proliferation assay, NCI-H460; type: cell-based; conditions: Homo sapiens, 168 hr
Summary of the method: as §1

[4] = in vitro enzyme inhibition assay
[5] = NCI-H460, Cell-MTS proliferation
[6] = Raji, Cell-MTS, class symbols A/B/C
[7] = HL-60, Cell-MTS, class symbols A/B/C
[8] = NCI-H460, Cell-MTS, class symbols A/B/C
[9] = Cell-MTS proliferation, Raji cells
[10] = Cell-MTS proliferation, HL-60 cells
[11] = Cell-MTS proliferation, NCI-H460 cells

Compound | IC50 (BRD4(BD1); [4]) | IC50 ([1]; Raji, Cell-MTS proliferation) | IC50 ([2]; HL-60, Cell-MTS proliferation) | IC50 [3, 5] | IC50 [1, 9] | IC50 [2, 10] | IC50 [3, 11] | other results
Cn1cc(-c2cc(NS(C)(=O)=O)ccc2Oc2ccc(F)cc2F)n2cncc2c1=O [Example 367, N-[4-(2,4-difluorophenoxy)-3-(7-methyl-8-oxoimidazo[1,5-a]pyrazin-5-yl)phenyl]methanesulfonamide] | < 0.5 µM | < 0.5 µM | < 0.5 µM | > 5 µM |  |  |  | 
Cc1cc(-c2nc(NS(C)(=O)=O)ncc2OCC2CC2)cn(C)c1=O [Example 153, N-[5-(cyclopropylmethoxy)-4-(1,5-dimethyl-6-oxopyridin-3-yl)pyrimidin-2-yl]methanesulfonamide] | < 0.5 µM | 0.5 to 5 µM | 0.5 to 5 µM | > 5 µM |  |  |  | 
Cn1cc(-c2cc(S(C)(=O)=O)ccc2OCC2CC2)cc(Oc2ccccc2)c1=O [Example 295, 5-[2-(cyclopropylmethoxy)-5-methylsulfonylphenyl]-1-methyl-3-phenoxypyridin-2-one] | < 0.5 µM | 0.5 to 5 µM | 0.5 to 5 µM | 0.5 to 5 µM |  |  |  | 
Cc1cc(-c2cc(S(C)(=O)=O)ccc2OCC2CC2)cn(CC(C)C)c1=O [Example 243, 5-[2-(cyclopropylmethoxy)-5-methylsulfonylphenyl]-3-methyl-1-(2-methylpropyl)pyridin-2-one] | 0.5 to 5 µM | > 5 µM | 0.5 to 5 µM | > 5 µM |  |  |  | 
Cc1cc(-c2cc(S(C)(=O)=O)ccc2OCC2CC2)cn(Cc2cocn2)c1=O [Example 246, 5-[2-(cyclopropylmethoxy)-5-methylsulfonylphenyl]-3-methyl-1-(1,3-oxazol-4-ylmethyl)pyridin-2-one] | 0.5 to 5 µM | > 5 µM | > 5 µM | > 5 µM |  |  |  | 
Cn1cc(-c2cc(S(C)(=O)=O)ccc2OCC2CC2)cc(N)c1=O [Example 116, 3-amino-5-[2-(cyclopropylmethoxy)-5-methylsulfonylphenyl]-1-methylpyridin-2-one] |  |  |  |  |  |  |  | IC50 (BRD4(BD1); class symbols A/B/C): < 0.5 µM; IC50 [1, 6]: > 5 µM; IC50 [2, 7]: 0.5 to 5 µM; IC50 [3, 8]: > 5 µM
CCS(=O)(=O)Nc1ccc(Oc2ccc(F)cc2F)c(-c2cn(C)c(=O)c3nc(C)oc23)c1 [Example 241, N-[4-(2,4-difluorophenoxy)-3-(2,5-dimethyl-4-oxo-[1,3]oxazolo[4,5-c]pyridin-7-yl)phenyl]ethanesulfonamide] | < 0.5 µM | < 0.5 µM | < 0.5 µM | > 5 µM |  |  |  | 
COc1cc(-c2cc(NS(C)(=O)=O)ccc2Oc2ccc(F)cc2F)cn(C)c1=O [Example 442, N-[4-(2,4-difluorophenoxy)-3-(5-methoxy-1-methyl-6-oxopyridin-3-yl)phenyl]methanesulfonamide] | < 0.5 µM |  |  |  | < 0.5 µM | < 0.5 µM | > 5 µM | 
Cn1cc(-c2cc(S(C)(=O)=O)ccc2NC(=O)C2CC2)c2ccccc2c1=O [Example 220, N-[2-(2-methyl-1-oxoisoquinolin-4-yl)-4-methylsulfonylphenyl]cyclopropanecarboxamide] | 0.5 to 5 µM | > 5 µM | > 5 µM | > 5 µM |  |  |  | 
Cc1cccc(C)c1COc1cc(-c2cc(C)c(=O)n(C)c2)cc(S(C)(=O)=O)c1 [Example 331, 5-[3-[(2,6-dimethylphenyl)methoxy]-5-methylsulfonylphenyl]-1,3-dimethylpyridin-2-one] | < 0.5 µM | 0.5 to 5 µM | < 0.5 µM | > 5 µM |  |  |  | 
CCn1cc(-c2cc(S(C)(=O)=O)ccc2NCC2CC2)cc(C)c1=O [Example 428, 5-[2-(cyclopropylmethylamino)-5-methylsulfonylphenyl]-1-ethyl-3-methylpyridin-2-one] | < 0.5 µM |  |  |  | 0.5 to 5 µM | 0.5 to 5 µM | > 5 µM | 
CCS(=O)(=O)Nc1ccc(OCC2CC2)c(-c2cn(C)c(=O)c3sc(C(N)=O)cc23)c1 [Example 266, 4-[2-(cyclopropylmethoxy)-5-(ethylsulfonylamino)phenyl]-6-methyl-7-oxothieno[2,3-c]pyridine-2-carboxamide] | < 0.5 µM | < 0.5 µM | < 0.5 µM | > 5 µM |  |  |  | 
Cn1cc(-c2cc(S(C)(=O)=O)ccc2NCC2CC2)c2ccccc2c1=O [Example 194, 4-[2-(cyclopropylmethylamino)-5-methylsulfonylphenyl]-2-methylisoquinolin-1-one] |  | < 0.5 µM | < 0.5 µM | > 5 µM |  |  |  | IC50 (BRD4(BD1)): < 0.5 µM
CCS(=O)(=O)Nc1ccc(Oc2ccc(F)cc2F)c(-c2cn(C)c(=O)c3oc(C)cc23)c1 [Example 269, N-[4-(2,4-difluorophenoxy)-3-(2,6-dimethyl-7-oxofuro[2,3-c]pyridin-4-yl)phenyl]ethanesulfonamide] | < 0.5 µM | < 0.5 µM | < 0.5 µM | > 5 µM |  |  |  | 
CCS(=O)(=O)Nc1ccc(Oc2ccc(F)cc2F)c(-c2cc(Cl)c(=O)n(C)c2)c1 [Example 134, N-[3-(5-chloro-1-methyl-6-oxopyridin-3-yl)-4-(2,4-difluorophenoxy)phenyl]ethanesulfonamide] |  |  |  |  |  |  |  | IC50 (BRD4(BD1); class symbols A/B/C): < 0.5 µM; IC50 [1, 6]: < 0.5 µM; IC50 [2, 7]: < 0.5 µM; IC50 [3, 8]: 0.5 to 5 µM
CCS(=O)(=O)Nc1ncc(OCC2CC2)c(-c2cn(C)c(=O)c3cc(F)ccc23)n1 [Example 160, N-[5-(cyclopropylmethoxy)-4-(7-fluoro-2-methyl-1-oxoisoquinolin-4-yl)pyrimidin-2-yl]ethanesulfonamide] | < 0.5 µM | < 0.5 µM | < 0.5 µM | > 5 µM |  |  |  | 
CCS(=O)(=O)Cc1ccc(Oc2ccc(F)cc2F)c(-c2cc(OC(F)F)c(=O)n(C)c2)c1 [Example 291, 3-(difluoromethoxy)-5-[2-(2,4-difluorophenoxy)-5-(ethylsulfonylmethyl)phenyl]-1-methylpyridin-2-one] | < 0.5 µM | < 0.5 µM | < 0.5 µM | > 5 µM |  |  |  | 
CCS(=O)(=O)Nc1ccc(Oc2ccc(F)cc2F)c(-c2cn(C)c(=O)c3nncn23)c1 [Example 236, N-[4-(2,4-difluorophenoxy)-3-(7-methyl-8-oxo-[1,2,4]triazolo[4,3-a]pyrazin-5-yl)phenyl]ethanesulfonamide] | < 0.5 µM | > 5 µM | 0.5 to 5 µM | > 5 µM |  |  |  | 
CCS(=O)(=O)c1ccc(NC2CCC(F)(F)CC2)c(-c2cc(C)c(=O)n(C)c2)c1 [Example 397, 5-[2-[(4,4-difluorocyclohexyl)amino]-5-ethylsulfonylphenyl]-1,3-dimethylpyridin-2-one] | < 0.5 µM |  |  |  | < 0.5 µM | < 0.5 µM | > 5 µM | 
CCS(=O)(=O)Nc1cccc(-c2cn(C)c(=O)c3ccncc23)c1 [Example 123, N-[3-(2-methyl-1-oxo-2,6-naphthyridin-4-yl)phenyl]ethanesulfonamide] |  |  |  |  |  |  |  | IC50 (BRD4(BD1); class symbols A/B/C): 0.5 to 5 µM; IC50 [1, 6]: 0.5 to 5 µM; IC50 [2, 7]: 0.5 to 5 µM; IC50 [3, 8]: > 5 µM
CCS(=O)(=O)Nc1cnc(OCC2CC2)c(-c2cn(C)c(=O)c3oc(F)cc23)c1 [Example 261] | < 0.5 µM | < 0.5 µM | < 0.5 µM | > 5 µM |  |  |  | 
CC#CCOc1ccc(S(=O)(=O)CC)cc1-c1cc(OC)c(=O)n(C)c1 [Example 389, 5-(2-but-2-ynoxy-5-ethylsulfonylphenyl)-3-methoxy-1-methylpyridin-2-one] | < 0.5 µM |  |  |  | 0.5 to 5 µM | < 0.5 µM | > 5 µM | 
Cc1cc(=O)n(C)cc1-c1cc(S(C)(=O)=O)ccc1OCC1CC1 [Example 477, 5-[2-(cyclopropylmethoxy)-5-methylsulfonylphenyl]-1,4-dimethylpyridin-2-one] | < 0.5 µM |  |  |  | 0.5 to 5 µM | < 0.5 µM | > 5 µM | 
CCS(=O)(=O)c1ccc(OCC2CC2)c(-c2cc(OC)c(=O)n(C)c2)c1 [Example 399, 5-[2-(cyclopropylmethoxy)-5-ethylsulfonylphenyl]-3-methoxy-1-methylpyridin-2-one] | < 0.5 µM |  |  |  | < 0.5 µM | < 0.5 µM | > 5 µM | 
COc1cc(-c2nc(S(C)(=O)=O)ncc2Oc2ccc(F)cc2F)cn(C)c1=O [Example 150, 5-[5-(2,4-difluorophenoxy)-2-methylsulfonylpyrimidin-4-yl]-3-methoxy-1-methylpyridin-2-one] | < 0.5 µM | 0.5 to 5 µM | 0.5 to 5 µM | > 5 µM |  |  |  | 
CCn1cc(-c2cc(CS(C)(=O)=O)ccc2Oc2ccc(F)cc2F)cc(C)c1=O [Example 429, 5-[2-(2,4-difluorophenoxy)-5-(methylsulfonylmethyl)phenyl]-1-ethyl-3-methylpyridin-2-one] | < 0.5 µM |  |  |  | < 0.5 µM | < 0.5 µM | > 5 µM | 
CCS(=O)(=O)c1ccc(OCC#CC2CC2)c(-c2cc(OC)c(=O)n(C)c2)c1 [Example 391, 5-[2-(3-cyclopropylprop-2-ynoxy)-5-ethylsulfonylphenyl]-3-methoxy-1-methylpyridin-2-one] | < 0.5 µM |  |  |  | 0.5 to 5 µM | < 0.5 µM | > 5 µM | 
CCS(=O)(=O)Cc1ccc(OCC(F)(F)F)c(-c2cn(C)c(=O)c3ccccc23)c1 [Example 487, 4-[5-(ethylsulfonylmethyl)-2-(2,2,2-trifluoroethoxy)phenyl]-2-methylisoquinolin-1-one] | < 0.5 µM |  |  |  | < 0.5 µM | < 0.5 µM | > 5 µM | 
